The values that follow come from US11629171B2, “Beta-hairpin peptidomimetics” (POLYPHOR AG, priority 2017, dated 2023).

The subject of data set [1] is human red blood cells (hRBC). Kind of data set: Hemolysis. In kind it is cell-based. Particulars: red cells of human, 1 h, 200. In short, it runs like this: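 hRBC washed 4× in PBS; 200 μg/mL peptide + 20% (v/v) hRBC, 1 h, 37° C, 300 rpm. Spin, supernatant ~7.5-fold diluted, OD540 blank corrected. % hemolysis = OD540 peptide / OD540 Triton X-100 × 100.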
The subject of the next data set is male ICR mice. Kind of data set: Tolerability in a mouse model (Maximum Tolerated Dose assay). Particulars: groups of 3. In kind it is in vivo. In short, it runs like this:
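Groups of 3 male ICR mice weighing 23±3 g received two subcutaneous doses, 12 h apart, of 30 or 40 mg/kg in saline adjusted to pH 6.5-7.6. Observation for 30 min after each dose covered autonomic effects and acute toxicity, including death.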

In a further data set the test system is Escherichia coli 926415. In kind it is cell-based. Conditions: 926415. In short, it runs like this:
(§1)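 Two-fold peptide dilutions in polysorbate 80-containing (0.002% final) cation-adjusted Mueller-Hinton II broth were inoculated with about 10^6 CFU/mL. The MIC was taken as the lowest concentration, in μg/mL, preventing visible growth at 18-20 hours and 35° C.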

Data set [2] relates to Enterobacter cloacae 848840. In kind it is cell-based. Conditions: 848840. In a few lines:
as §1

The subject of data set [3] is Acinetobacter baumannii DSM 30008. In kind it is cell-based. Conditions: DSM 30008. In a few lines: as §1
Data set [4] deals with Klebsiella pneumoniae 968733. In kind it is cell-based. Conditions: 968733. In short, it runs like this:
as §1

Data set [5] has as its system Escherichia coli ATCC 25922. In kind it is cell-based. Particulars: ATCC 25922. In short, it runs like this: as §1
Data set [6] relates to Pseudomonas aeruginosa ATCC 27853. In kind it is cell-based. Conditions: ATCC 27853. In short, it runs like this:
as §1

The subject of data set [7] is Acinetobacter baumannii 872842. In kind it is cell-based. Particulars: 872842. In short, it runs like this:
as §1

The test system of data set [8] is Klebsiella pneumoniae SSI #3010. In kind it is cell-based. Particulars: SSI #3010. In a few lines:
as §1

Where [9] appears, read: 2 × 30 mg/kg s.c. at a 12-hr interval.
The mark [10] stands for this setting: 2 × 40 mg/kg s.c. at a 12-hr interval.

≈ marks a conversion by molar mass, not a printed value. Where a SMILES comes first, the peptide text is derived from it. Bridges are numbered along the chain shown (N, C = ends). Roman numbers before positions name the chains, in order. [ ]: non-standard residue; d: D form. Pen = CC(C)(S)[C@H](N)C(=O)O; Tle = CC(C)(C)[C@H](N)C(=O)O; Hiv = CC(C)[C@H](O)C(=O)O; dDab = NCC[C@@H](N)C(=O)O; Dab = NCC[C@H](N)C(=O)O; Abu = CC[C@H](N)C(=O)O; Dap = NC[C@H](N)C(=O)O

Take `CC[C@@H]1NC(=O)[C@@H](CC(C)C)NC(=O)[C@H](CCN)NC(=O)[C@@H](NC(=O)[C@H](CN)NC(=O)[C@@H](NC(=O)[C@H](CCN)NC(=O)CC[C@@H]2NC(=O)[C@H](CO)NC(=O)[C@H](Cc3ccc(O)cc3)NC(=O)[C@@H](NC(=O)[C@@H](NC(C)=O)C(C)C)CSSC[C@@H](C(=O)N[C@@H](CO)C(N)=O)NC(=O)[C@H]([C@@H](C)CC)NC(=O)[C@H](CO)NC(=O)[C@H](Cc3c[nH]c4ccccc34)NC(=O)[C@H](CO)NC(=O)[C@@H](CCN)NC2=O)[C@@H](C)O)CCNC(=O)[C@H]([C@@H](C)O)NC(=O)[C@H](CCN)NC(=O)[C@H](CCN)NC1=O` [Ex. 260] (I: Ac-VCYSE[dDab]SWSICS-NH2 / II: [Dab]T[Dap][Dab][Dab][dL][Abu][Dab][Dab]T; disulfide I:2-I:11; amide I:5-II:N; lactam II:4-II:C): the “Hemolysis at 200 μg/mL” value in [1] is given as below 1%. In the data set on male ICR mice (setting [9]), the Mortality and dose is listed as 0/3 died at 2 × 30 mg/kg. Further, the MIC against Escherichia coli 926415 amounted to 0.5 µg/mL (≈ 0.211 µM); in [2], 0.0625 µg/mL (≈ 0.0264 µM); in [3], 0.01562 µg/mL (≈ 0.00659 µM); in data set [4], 0.5 µg/mL (≈ 0.211 µM); in [5] it was 0.01562 µg/mL (≈ 0.00659 µM); in [6] it was 0.0625 µg/mL (≈ 0.0264 µM). Also, the MIC in [7] and in data set [8] was 0.0625 µg/mL (≈ 0.0264 µM) in each case.
For the molecule `CC(=O)N[C@H](C(=O)N[C@H]1CSSC[C@@H](C(=O)N[C@@H](CO)C(N)=O)NC(=O)[C@H](C(C)(C)C)NC(=O)[C@H](CO)NC(=O)[C@H](Cc2c[nH]c3ccccc23)NC(=O)[C@H](CCN)NC(=O)[C@@H](CCN)NC(=O)[C@H](CCC(=O)N[C@@H](CCN)C(=O)N[C@H](C(=O)N[C@@H](CN)C(=O)N[C@H]2CCNC(=O)[C@H]([C@@H](C)O)NC(=O)[C@H](CCN)NC(=O)[C@H](CCN)NC(=O)[C@H]([C@@H](C)O)NC(=O)[C@@H](CC(C)C)NC(=O)[C@H](CCN)NC2=O)[C@@H](C)O)NC(=O)[C@H](CO)NC(=O)[C@H](Cc2ccc(O)cc2)NC1=O)C(C)C` [Ex. 261] (I: Ac-VCYSE[dDab][Dab]WS[Tle]CS-NH2 / II: [Dab]T[Dap][Dab][Dab][dL]T[Dab][Dab]T; disulfide I:2-I:11; amide I:5-II:N; lactam II:4-II:C), in [1], the “Hemolysis at 200 μg/mL” value is 1%. For the same molecule, in the data set on male ICR mice (setting [9]), the Mortality and dose is 0/3 died at 2 × 30 mg/kg. In addition, the MIC stood at 0.125 µg/mL (≈ 0.0521 µM) in the data set with Escherichia coli 926415; 0.125 µg/mL (≈ 0.0521 µM) in data set [2]; 0.03125 µg/mL (≈ 0.013 µM) in data set [3]; 0.25 µg/mL (≈ 0.104 µM) in data set [4]; 0.03125 µg/mL (≈ 0.013 µM) in data set [5]; 0.125 µg/mL (≈ 0.0521 µM) in data set [6]. Also, the MIC in [7] and in [8] was 0.0625 µg/mL (≈ 0.026 µM) each time.
`CC[C@@H]1NC(=O)[C@@H](CC(C)C)NC(=O)[C@H](CCN)NC(=O)[C@@H](NC(=O)[C@H](CN)NC(=O)[C@@H](NC(=O)[C@H](CCN)NC(=O)CC[C@@H]2NC(=O)[C@@H](NC(=O)[C@H](Cc3ccc(O)cc3)NC(=O)[C@@H](NC(=O)[C@@H](NC(C)=O)C(C)C)[C@@H](C)O)CSSC(C)(C)[C@@H](C(=O)N[C@H](C(=O)N[C@H](C(=O)N[C@H](C(N)=O)[C@@H](C)O)[C@@H](C)O)C(C)C)NC(=O)[C@H](Cc3c[nH]c4ccccc34)NC(=O)[C@H](CCN)NC(=O)[C@@H](CCN)NC2=O)[C@@H](C)O)CCNC(=O)[C@H]([C@@H](C)O)NC(=O)[C@H](CCN)NC(=O)[C@H](CCN)NC1=O` [Ex. 266] (I: Ac-VTYCE[dDab][Dab]W[Pen]VTT-NH2 / II: [Dab]T[Dap][Dab][Dab][dL][Abu][Dab][Dab]T; disulfide I:4-I:9; amide I:5-II:N; lactam II:4-II:C): the “Hemolysis at 200 μg/mL” value in data set [1] was determined as 1%. Also, in the data set on male ICR mice (setting [9]), the Mortality and dose was 0/3 died at 2 × 30 mg/kg. Also, the MIC in the data set with Escherichia coli 926415 is 0.5 µg/mL (≈ 0.205 µM); in data set [2] it was 0.25 µg/mL (≈ 0.102 µM); in [3] it was 0.0625 µg/mL (≈ 0.0256 µM); in [4], 1 µg/mL (≈ 0.41 µM); in data set [5], 0.03125 µg/mL (≈ 0.0128 µM); in data set [6], 0.125 µg/mL (≈ 0.0512 µM). The minimum inhibitory concentration (MIC) was 0.5 µg/mL (≈ 0.205 µM) in data set [7] and 0.0625 µg/mL (≈ 0.0256 µM) in data set [8].
Take `CC(C)C[C@@H]1NC(=O)[C@@H](CC(C)C)NC(=O)[C@H](CCN)NC(=O)[C@@H](NC(=O)[C@H](CN)NC(=O)[C@@H](NC(=O)[C@H](CCN)NC(=O)CC[C@@H]2NC(=O)[C@H](CO)NC(=O)[C@H](Cc3ccc(O)cc3)NC(=O)[C@@H](NC(=O)[C@@H](O)C(C)C)CSSC[C@@H](C(=O)N[C@@H](CO)C(N)=O)NC(=O)[C@H](C(C)C)NC(=O)[C@H](CO)NC(=O)[C@H](Cc3c[nH]c4ccccc34)NC(=O)[C@H](CCN)NC(=O)[C@@H](CCN)NC2=O)[C@@H](C)O)CCNC(=O)[C@H]([C@@H](C)O)NC(=O)[C@H](CCN)NC(=O)[C@H](CCN)NC1=O` [Ex. 270] (I: H-[Hiv]CYSE[dDab][Dab]WSVCS-NH2 / II: [Dab]T[Dap][Dab][Dab][dL]L[Dab][Dab]T; disulfide I:2-I:11; amide I:5-II:N; lactam II:4-II:C): the “Hemolysis at 200 μg/mL” value in [1] is given as below 1%. The Mortality and dose in the data set on male ICR mice (setting [10]) is 0/3 died at 2 × 40 mg/kg. Moreover, the MIC against Escherichia coli 926415 was 0.125 µg/mL (≈ 0.053 µM); in data set [2] it was 0.25 µg/mL (≈ 0.106 µM); in data set [3], 0.0625 µg/mL (≈ 0.0265 µM); in [4], 0.125 µg/mL (≈ 0.053 µM); in data set [5] it was 0.0625 µg/mL (≈ 0.0265 µM); in data set [6], 0.125 µg/mL (≈ 0.053 µM). Also, the MIC in data set [7] and in [8] was 0.0625 µg/mL (≈ 0.0265 µM) in each case.
Take `CC(=O)N[C@H](C(=O)N[C@H]1CSSC[C@@H](C(=O)N[C@@H](CO)C(N)=O)NC(=O)[C@H](C(C)C)NC(=O)[C@H](CCN)NC(=O)[C@H](Cc2c[nH]c3ccccc23)NC(=O)[C@H](CO)NC(=O)[C@@H](CO)NC(=O)[C@H](CCC(=O)N[C@@H](CCN)C(=O)N[C@H](C(=O)N[C@@H](CN)C(=O)N[C@H]2CCNC(=O)[C@H]([C@@H](C)O)NC(=O)[C@H](CCN)NC(=O)[C@H](CCN)NC(=O)[C@H](CC(C)C)NC(=O)[C@@H](CC(C)C)NC(=O)[C@H](CCN)NC2=O)[C@@H](C)O)NC(=O)[C@H](CCN)NC(=O)[C@H](Cc2ccc(O)cc2)NC1=O)C(C)C` [Ex. 296] (I: Ac-VCY[Dab]E[dS]SW[Dab]VCS-NH2 / II: [Dab]T[Dap][Dab][Dab][dL]L[Dab][Dab]T; disulfide I:2-I:11; amide I:5-II:N; lactam II:4-II:C): the “Hemolysis at 200 μg/mL” value in data set [1] is listed as below 1%. Besides, in the data set on male ICR mice (setting [10]), the Mortality and dose is 0/3 died at 2 × 40 mg/kg. For the same molecule, the MIC against Escherichia coli 926415 was 0.5 µg/mL (≈ 0.208 µM); in data set [2], 0.5 µg/mL (≈ 0.208 µM); in [3], 0.125 µg/mL (≈ 0.0521 µM); in data set [4] it was 4 µg/mL (≈ 1.67 µM); in data set [5], 0.125 µg/mL (≈ 0.0521 µM); in data set [6], 0.25 µg/mL (≈ 0.104 µM). For the same molecule, the MIC in data set [7] was 0.25 µg/mL (≈ 0.104 µM); in [8], 0.0625 µg/mL (≈ 0.0261 µM).
